Laboratory results published in patent publication US6967205B1, “Compounds with antibacterial and antiparasitic properties” (New Pharma Research Sweden AB, priority 1999, dated 2005).
Converted amounts (≈) assume the structure as drawn. “And” between values parts separate entries of the source, which are not always exact repeats. Equal entries are not always repeated.

Experiments:
[1] = tested on: Eimeria acervulina, E. maxima, E. necatrix, E. tenella and E. brunetti; assay: Prophylactic anticoccidial activity in chickens of Habbared X breed (5 Eimeria strains); type: in vivo; details: drug in feed (JA 39, JA 42 100 ppm; Coxistac 60 ppm)
Experimental: The anticoccidial activity of the present compounds as prophylactic agents was evaluated in vivo on […] one day old (1 day after hatch) chickens of Habbared X breed. The chickens were divided into four groups of 20 birds each, and each group was located in a separate pen (1 m×1 m). The chickens were then fed with unmedicated food up to day 7 after hatch. Fresh water was supplied ad libitum .
On day 8 after hatch, the four groups were fed as follows (1 ppm=1 mg drug/kg feed): • Group #1: feed containing JA 39 (100 ppm); • Group #2: feed containing JA 42 (100 ppm); • Group #3: feed containing Coxistac (60 ppm), a known anticoccidial agent (see U.S. Pat. No. 3,857,948);
Group #4: feed containing no drug (control group).
The chickens were fed as above on day 8 and 9 after hatch. On day 10 after hatch, each chicken was infected orally by 6 000-7 000 oocysts containing a mixture of 5 mature sporulated strains, namely Eimeria acervulina, E. maxima, E. necatrix, E. tenella and E. brunetti. The groups #1-3 received drug as above from day 10 to 21 after hatch.
From day 14 to 21 after hatch, fresh fecal droplets were collected and examined daily. The average number of oocysts/g faeces was then calculated in accordance with the so-called Mc-Master technique (Soulsby, E. J., Helminths, Arthropods & Protozoa of domesticated animals, p. 789, 6th Ed., Williams & Wilkins Co. Baltimore (USA), Tindall & Cassell Ltd., London, 1968). The final weight of and mean total amount of feed consumed by each bird were also examined, and the results are summarized in Table 8 hereinbelow.

T. evansi = assay: Antitrypanosomal activity in vivo in white albino rats (Giemsa blood smears); details: individual animals
Experimental: The antitrypanosomal activity of the present compounds was evaluated in vivo on 40 white albino rats. The rats were divided into 4 groups of 10 rats each. The rats were then inoculated intraperitoneally with 10^3 organisms of T. evansi (isolated from blood of naturally infected camels) in accordance with known methodology (see Kolmer, J. A., J. Infect. Dis., 17:78-95 (1915)). The progress of the infection was monitored with the aid of standard Giemsa procedure (see Cruickshank, R., Handbook of Bacteriology, E and S Livingstone Ltd., Edinborough and London, 1961), whereby peripheral blood samples from the rats were examined under microscope. The number of Trypanosoma organisms in every blood sample was calculated and classified as follows (the numbers below are given for fields examined on a microscope slide): • +++=>10 organisms • ++=5-10 organisms • +=1-4 organisms • 0=no organisms detected
On day 1 post infection, each group of rats was subcutaneously injected with a single dose of tested compound in an amount of 50.0 mg/kg body weight. The following drugs were administered:
Group #4: saline solution (control group)

[2] = tested on: Micrococcus Luteus (ATCC 9341); assay: M.I.C. by broth dilution method (NCCLS 1988), gram-positive bacteria; type: cell-based; details: for MIC: ATCC9341, in vitro broth dilution, read-out: M.I.C. values Microc. Luteus
Experimental: (§1) The antibacterial activity of the present compounds was investigated by in vitro evaluation of their M.I.C. (Minimum Inhibitory Concentration) values. The evaluation was conducted in complete accordance with the “Broth dilution method”, as outlined by the U.S. National Committee for Clinical Laboratory Standards “NCCLS 1988”.
(§2) Solutions of the present compounds were prepared by dissolving 0.01 g of a test compound in either 10% KOH (aq) or a 10% KOH/DMF mixture, after which sterile, distilled H2O was added up to a total volume of 10 ml, thereby yielding a test compound concentration of 1 000 μg/ml.
(§3) In this evaluation, the antibacterial activity of the present compounds and enrofloxacin as reference compound was tested against seven strains of gram-positive bacteria, namely Bacillus subtilus (ATCC 6633), Bacillus cereus, Streptococcus faecium, Micrococcus Luteus (ATCC 9341), Staph. aureus (ATCC 29737), Staph. epidermidis (ATCC 12228) and Staphylococcus (ATCC 6538).

Streptococcus faecium = assay: as above; type: cell-based; details: in vitro broth dilution; for MIC: Enterococcus faecium, read-out: M.I.C. values Streptoc. faecium
Experimental: as §1, §2, §3

[3] = tested on: Bacillus subtilus (ATCC 6633); assay: as above; type: cell-based; details: for MIC: ATCC6633, in vitro broth dilution
Experimental: as §1, §2, §3

[4] = tested on: Staph. aureus (ATCC 29737); assay: as above; type: cell-based; details: for MIC: Staphylococcus aureus, ATCC29737, in vitro broth dilution
Experimental: as §1, §2, §3

[5] = tested on: Staphylococcus (ATCC 6538); assay: as above; type: cell-based; details: for MIC: ATCC6538, in vitro broth dilution, read-out: M.I.C. values Staph. (ATCC 6538)
Experimental: as §1, §2, §3

[6] = tested on: Staph. epidermidis (ATCC 12228); assay: as above; type: cell-based; details: for MIC: Staphylococcus epidermidis, ATCC12228, in vitro broth dilution
Experimental: as §1, §2, §3

Bacillus cereus = assay: as above; type: cell-based; details: in vitro broth dilution
Experimental: as §1, §2, §3

[7] = day 1 post infection (day of dosing), single s.c. dose 50.0 mg/kg
[8] = day 3 post infection, single s.c. dose 50.0 mg/kg on day 1, 50 mg/kg
[9] = day 9 post infection, single s.c. dose 50.0 mg/kg on day 1, 50 mg/kg
[10] = day 11 post infection, single s.c. dose 50.0 mg/kg on day 1, 50 mg/kg
[11] = in vitro broth dilution, unit assumed

SMILES | MIC [2] [µg/mL] | MIC (Streptococcus faecium) [µg/mL] | MIC [3] [µg/mL] | MIC [4] [µg/mL] | MIC [5] [µg/mL] | MIC [6] [µg/mL] | MIC (Bacillus cereus) [µg/mL] | also measured
CC[C@@H](C(=O)[C@@H](C)[C@@H](O)[C@H](C)[C@@H]1O[C@@H]([C@@H](CC)C(=O)O)CC[C@@H]1C)[C@H]1O[C@]2(C=C[C@@H](O)[C@]3(CC[C@@](C)([C@H]4CC[C@](O)(CC)[C@H](C)O4)O3)O2)[C@H](C)C[C@@H]1C [Coxistac, reference compound] |  |  |  |  |  |  |  | Average number of Eimeria spp. oocysts/g faeces, day after hatch 14 ([1]; day 14 after hatch, infected day 10): 0.0 oocysts/g faeces; Average number of Eimeria spp. oocysts/g faeces, day after hatch 15 ([1]; day 15 after hatch, infected day 10): 3000 oocysts/g faeces; Average number of Eimeria spp. oocysts/g faeces, day after hatch 16 ([1]; day 16 after hatch, infected day 10): 4000 oocysts/g faeces; Average number of Eimeria spp. oocysts/g faeces, day after hatch 17 ([1]; day 17 after hatch, infected day 10): 7000 oocysts/g faeces; Average number of Eimeria spp. oocysts/g faeces, day after hatch 18 ([1]; day 18 after hatch, infected day 10): 2000 oocysts/g faeces; Average number of Eimeria spp. oocysts/g faeces, day after hatch 19 ([1]; day 19 after hatch, infected day 10): 2000 oocysts/g faeces; Average number of Eimeria spp. oocysts/g faeces, day after hatch 21 ([1]; day 21 after hatch, infected day 10): 0.0 oocysts/g faeces; Mean body weight ([1]; final weight, infected chickens): 62.0 g; Mean amount of feed consumed ([1]; mean total feed per bird, infected chickens): 120 g; Average number of Eimeria spp. oocysts/g faeces, Total ([1]; total of days 14-21 after hatch): 18000 oocysts/g faeces
O=C(O)c1cn(C2CC2)c2cc(NCc3ccncc3)c(F)cc2c1=O [JA 68, 1-cyclopropyl-6-fluoro-4-oxo-7-[(4-pyridinylmethyl)amino]-1,4-dihydro-3-quinolinecarboxylic acid] | 2 (≈ 5.66 µM) | 1 (≈ 2.83 µM) | 0.12 (≈ 0.34 µM) | 0.12 (≈ 0.34 µM) | 0.12 (≈ 0.34 µM) | 0.25 (≈ 0.708 µM) | 0.06 (≈ 0.17 µM) | Number of T. evansi per examined field (T. evansi; [7]): + (+=1-4 organisms); Number of T. evansi per examined field (T. evansi; [8]): ++ (++=5-10 organisms) (9×) and 0 (0=no organisms detected); Number of T. evansi per examined field (T. evansi; day 5 post infection, single s.c. dose 50.0 mg/kg on day 1, 50 mg/kg): 0 (0=no organisms detected) (8×) and ++ (++=5-10 organisms) (2×); Number of T. evansi per examined field (T. evansi; day 7 post infection, single s.c. dose 50.0 mg/kg on day 1, 50 mg/kg): +++ (+++=>10 organisms) and 0 (0=no organisms detected) (9×); Number of T. evansi per examined field (T. evansi; [9]): 0 (0=no organisms detected) (9×) and dead; Number of T. evansi per examined field (T. evansi; [10]): 0 (0=no organisms detected) (9×) and dead; Number of T. evansi per examined field (T. evansi; day 13 post infection, single s.c. dose 50.0 mg/kg on day 1, 50 mg/kg): 0 (0=no organisms detected) (9×) and dead
O=C(O)c1cn(C2CC2)c2cc(N3CCC(CNC(=S)Nc4ccccc4)CC3)c(F)cc2c1=O [JA 110, 7-(4-{[(anilinocarbothioyl)amino]methyl}-1-piperidinyl)-1-cyclopropyl-6-fluoro-4-oxo-1,4-dihydro-3-quinolinecarboxylic acid] |  |  |  |  |  |  |  | Number of T. evansi per examined field (T. evansi; [7]): + (+=1-4 organisms); Number of T. evansi per examined field (T. evansi; [8]): ++ (++=5-10 organisms); Number of T. evansi per examined field (T. evansi; day 5 post infection, single s.c. dose 50.0 mg/kg on day 1): ++ (++=5-10 organisms); Number of T. evansi per examined field (T. evansi; day 7 post infection, single s.c. dose 50.0 mg/kg on day 1): ++ (++=5-10 organisms); Number of T. evansi per examined field (T. evansi; [9]): + (+=1-4 organisms) and 0 (0=no organisms detected) (9×); Number of T. evansi per examined field (T. evansi; [10]): + (+=1-4 organisms) and 0 (0=no organisms detected) (9×); Number of T. evansi per examined field (T. evansi; day 13 post infection, single s.c. dose 50.0 mg/kg on day 1): 0 (0=no organisms detected)
CC(=O)CC(=O)N(CC1CCCO1)c1cc2c(cc1F)c(=O)c(C(=O)O)cn2C1CC1 (stereo not drawn) [JA 144] |  |  |  |  |  |  |  | M.I.C. values Microc. Luteus [2, 11]: 1 µg/mL; M.I.C. values Streptoc. faecium (Streptococcus faecium; unit assumed): 0.5 µg/mL; M.I.C. values Bacillus subtilus [3, 11]: 0.12 µg/mL; M.I.C. values Staph. aureus [4, 11]: 0.12 µg/mL; M.I.C. values Staph. (ATCC 6538) [5, 11]: 0.06 µg/mL; M.I.C. values Staph. epidermidis [6, 11]: 0.12 µg/mL; M.I.C. values Bacillus cereus (Bacillus cereus; unit assumed): 0.12 µg/mL
O=C(O)c1cn(C2CC2)c2cc(N(CCc3ccncc3)CC3CCCO3)c(F)cc2c1=O (stereo not drawn) [JA 145, 1-cyclopropyl-6-fluoro-4-oxo-7-[[2-(4-pyridinyl)ethyl](tetrahydro-2-furanylmethyl)amino]-1,4-dihydro-3-quinolinecarboxylic acid] | 2 (≈ 4.43 µM) | 1 (≈ 2.21 µM) | 0.12 (≈ 0.266 µM) | 0.12 (≈ 0.266 µM) | 0.12 (≈ 0.266 µM) | 0.12 (≈ 0.266 µM) | 0.12 (≈ 0.266 µM) | 
O=C(O)c1cn(C2CC2)c2cc(N(CCc3ccccn3)CC3CCCO3)c(F)cc2c1=O (stereo not drawn) [JA 146, 1-cyclopropyl-6-fluoro-4-oxo-7-[[2-(2-pyridinyl)ethyl](tetrahydro-2-furanylmethyl)amino]-1,4-dihydro-3-quinolinecarboxylic acid] | 2 (≈ 4.43 µM) | 1 (≈ 2.21 µM) | 0.12 (≈ 0.266 µM) | 0.12 (≈ 0.266 µM) | 0.12 (≈ 0.266 µM) | 0.12 (≈ 0.266 µM) | 0.12 (≈ 0.266 µM) | 
COCC(C)N(C(=O)CC(C)=O)c1cc2c(cc1F)c(=O)c(C(=O)O)cn2C1CC1 (stereo not drawn) [JA 148, 7-[acetoacetyl(2-methoxy-1-methylethyl)amino]-1-cyclopropyl-6-fluoro-4-oxo-1,4-dihydro-3-quinolinecarboxylic acid] | 2 (≈ 4.78 µM) | 1 (≈ 2.39 µM) | 0.12 (≈ 0.287 µM) | 0.12 (≈ 0.287 µM) | 0.12 (≈ 0.287 µM) | 0.12 (≈ 0.287 µM) | 0.06 (≈ 0.143 µM) | 
COCC(C)N(c1cc2c(cc1F)c(=O)c(C(=O)O)cn2C1CC1)S(=O)(=O)c1ccc([N+](=O)[O-])cc1 (stereo not drawn) [JA 149, 1-cyclopropyl-6-fluoro-7-{(2-methoxy-1-methylethyl)[(4-nitrophenyl)sulfonyl]amino}-4-oxo-1,4-dihydro-3-quinolinecarboxylic acid] | 2 (≈ 3.85 µM) | 2 (≈ 3.85 µM) | 0.12 (≈ 0.231 µM) | 0.12 (≈ 0.231 µM) | 0.12 (≈ 0.231 µM) | 0.12 (≈ 0.231 µM) | 0.12 (≈ 0.231 µM) | 
